Values of other authors, collected in patent publication US20130217673A1, “MIXED MONOAMINE REUPTAKE INHIBITOR IN A BIODEGRADABLE POLYMER CARRIER” (Warsaw Orthopedic, Inc, priority 2012, published 2013).

Test system: nociception
Conditions: compared with bupivacaine

SMILES: CN(C)CCC=C1c2ccccc2CCc2ccccc21 [amitryptyline, 3-(10,11-dihydro-5H-dibenzo[a,d]cycloheptene-5-ylidene)-N,N-dimethylpropan-1-amine]
- duration of the effect in blocking nociception: the effects last longer
- potency in blocking nociception relative to bupivacaine: at least three times more potent than bupivacaine

SMILES: CN(C)CCC=C1c2ccccc2COc2ccccc21 [doxepin]
- duration of the effect in blocking nociception: the effects last longer
- potency in blocking nociception relative to bupivacaine: at least three times more potent than bupivacaine
